Reference: ChEMBL document CHEMBL1201862, “PubChem BioAssay data set” (2004)
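A five-concentration, 48-hour dose response in 96-well plates underlies each endpoint, interpolated linearly between surrounding concentrations. Here, GI50 denotes the concentration required for 50% inhibition of growth.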 Activity calls are given as the source filed them. Rule as the data show it: active = GI50 up to about 1.1 µM and inactive = higher.

Legend:
Test in all cases: inhibition of tumour cell growth, NCI panel, 48 h
786-0 = test system: 786-0
A498 = test system: A498
A549 = test system: A549
ACHN = test system: ACHN
BT-549 = test system: BT-549
CAKI-1 = test system: CAKI-1
CCRF-CEM = test system: CCRF-CEM
COLO 205 = test system: COLO 205
DU-145 = test system: DU-145
EKVX = test system: EKVX
HCC 2998 = test system: HCC 2998
HCT-116 = test system: HCT-116
HCT-15 = test system: HCT-15
HL-60 = test system: HL-60
HOP-62 = test system: HOP-62
HOP-92 = test system: HOP-92
HT-29 = test system: HT-29
Hs-578T = test system: Hs-578T
IGROV-1 = test system: IGROV-1
K562 = test system: K562
KM12 = test system: KM12
LOX IMVI = test system: LOX IMVI
M14 = test system: M14
MCF7 = test system: MCF7
MDA-MB-231 = test system: MDA-MB-231
MDA-MB-435 = test system: MDA-MB-435
MDA-N = test system: MDA-N
MOLT-4 = test system: MOLT-4
Malme-3M = test system: Malme-3M
NCI-H226 = test system: NCI-H226
NCI-H23 = test system: NCI-H23
NCI-H460 = test system: NCI-H460
NCI-H522 = test system: NCI-H522
NCI/ADR-RES = test system: NCI/ADR-RES
OVCAR-3 = test system: OVCAR-3
OVCAR-4 = test system: OVCAR-4
OVCAR-8 = test system: OVCAR-8
PC-3 = test system: PC-3
RPMI-8226 = test system: RPMI-8226
RXF 393 = test system: RXF 393
SF-268 = test system: SF-268
SF-539 = test system: SF-539
SK-MEL-28 = test system: SK-MEL-28
SK-MEL-5 = test system: SK-MEL-5
SK-OV-3 = test system: SK-OV-3
SN12C = test system: SN12C
SNB-19 = test system: SNB-19
SR = test system: SR
SW-620 = test system: SW-620
T47D = test system: T47D
TK-10 = test system: TK-10
UACC-257 = test system: UACC-257
UACC-62 = test system: UACC-62
UO-31 = test system: UO-31
OVCAR-5 = test system: OVCAR-5
SF-295 = test system: SF-295
SK-MEL-2 = test system: SK-MEL-2
SNB-75 = test system: SNB-75
U-251 = test system: U-251

O=C(C(Cl)=C(N1CCOCC1)N1CCOCC1)C(Cl)Cl
GI50 (786-0): > 100 µM (inactive) | GI50 (A498): > 100 µM (inactive) | GI50 (A549): > 100 µM (inactive) | GI50 (ACHN): > 100 µM (inactive) | GI50 (BT-549): > 100 µM (inactive) | GI50 (CAKI-1): > 100 µM (inactive) | GI50 (CCRF-CEM): 56.9 µM (inactive) | GI50 (COLO 205): > 100 µM (inactive) | GI50 (DU-145): > 100 µM (inactive) | GI50 (EKVX): > 100 µM (inactive) | GI50 (HCC 2998): > 100 µM (inactive) | GI50 (HCT-116): > 100 µM (inactive) | GI50 (HCT-15): > 100 µM | GI50 (HL-60): > 100 µM (inactive) | GI50 (HOP-62): > 100 µM (inactive) | GI50 (HOP-92): > 100 µM (inactive) | GI50 (HT-29): > 100 µM (inactive) | GI50 (Hs-578T): > 100 µM (inactive) | GI50 (IGROV-1): > 100 µM (inactive) | GI50 (K562): > 100 µM (inactive) | GI50 (KM12): > 100 µM (inactive) | GI50 (LOX IMVI): > 100 µM (inactive) | GI50 (M14): > 100 µM (inactive) | GI50 (MCF7): 94.2 µM (inactive) | GI50 (MDA-MB-231): > 100 µM (inactive) | GI50 (MDA-MB-435): > 100 µM (inactive) | GI50 (MDA-N): > 100 µM (inactive) | GI50 (MOLT-4): > 100 µM (inactive) | GI50 (Malme-3M): > 100 µM (inactive) | GI50 (NCI-H226): > 100 µM (inactive) | GI50 (NCI-H23): > 100 µM (inactive) | GI50 (NCI-H460): > 100 µM (inactive) | GI50 (NCI-H522): > 100 µM (inactive) | GI50 (NCI/ADR-RES): > 100 µM (inactive) | GI50 (OVCAR-3): > 100 µM (inactive) | GI50 (OVCAR-4): > 100 µM (inactive) | GI50 (OVCAR-8): > 100 µM (inactive) | GI50 (PC-3): > 100 µM (inactive) | GI50 (RPMI-8226): > 100 µM (inactive) | GI50 (RXF 393): > 100 µM (inactive) | GI50 (SF-268): > 100 µM (inactive) | GI50 (SF-539): > 100 µM (inactive) | GI50 (SK-MEL-28): > 100 µM (inactive) | GI50 (SK-MEL-5): > 100 µM (inactive) | GI50 (SK-OV-3): > 100 µM (inactive) | GI50 (SN12C): > 100 µM (inactive) | GI50 (SNB-19): > 100 µM (inactive) | GI50 (SR): 34.5 µM (inactive) | GI50 (SW-620): > 100 µM (inactive) | GI50 (T47D): > 100 µM (inactive) | GI50 (TK-10): > 100 µM (inactive) | GI50 (UACC-257): > 100 µM (inactive) | GI50 (UACC-62): > 100 µM (inactive) | GI50 (UO-31): > 100 µM (inactive)

CC(Oc1ccc(Cl)cc1Cl)C(=O)NN1C(=O)CC(=O)NC1=S (stereo unspecified)
GI50 (786-0): > 100 µM (inactive) | GI50 (A498): 90.8 µM (inactive) | GI50 (A549): > 100 µM (inactive) | GI50 (ACHN): 88.1 µM (inactive) | GI50 (BT-549): > 100 µM (inactive) | GI50 (CAKI-1): 82 µM (inactive) | GI50 (COLO 205): > 100 µM (inactive) | GI50 (DU-145): > 100 µM (inactive) | GI50 (EKVX): > 100 µM (inactive) | GI50 (HCC 2998): > 100 µM (inactive) | GI50 (HCT-116): > 100 µM (inactive) | GI50 (HCT-15): 86.9 µM | GI50 (HL-60): 30.9 µM (inactive) | GI50 (HOP-62): > 100 µM (inactive) | GI50 (HOP-92): 39.6 µM (inactive) | GI50 (HT-29): > 100 µM (inactive) | GI50 (Hs-578T): > 100 µM (inactive) | GI50 (IGROV-1): > 100 µM (inactive) | GI50 (K562): > 100 µM (inactive) | GI50 (KM12): > 100 µM (inactive) | GI50 (LOX IMVI): 80 µM (inactive) | GI50 (M14): > 100 µM (inactive) | GI50 (MCF7): 76.7 µM (inactive) | GI50 (MDA-MB-231): > 100 µM (inactive) | GI50 (MDA-MB-435): > 100 µM (inactive) | GI50 (MDA-N): > 100 µM (inactive) | GI50 (Malme-3M): > 100 µM (inactive) | GI50 (NCI-H226): 82.8 µM (inactive) | GI50 (NCI-H23): > 100 µM (inactive) | GI50 (NCI-H460): > 100 µM (inactive) | GI50 (NCI-H522): > 100 µM (inactive) | GI50 (NCI/ADR-RES): > 100 µM (inactive) | GI50 (OVCAR-3): > 100 µM (inactive) | GI50 (OVCAR-4): > 100 µM (inactive) | GI50 (OVCAR-5): > 100 µM (inactive) | GI50 (OVCAR-8): > 100 µM (inactive) | GI50 (PC-3): > 100 µM (inactive) | GI50 (RPMI-8226): 46 µM (inactive) | GI50 (RXF 393): > 100 µM (inactive) | GI50 (SF-268): > 100 µM (inactive) | GI50 (SF-295): > 100 µM (inactive) | GI50 (SF-539): > 100 µM (inactive) | GI50 (SK-MEL-28): > 100 µM (inactive) | GI50 (SK-MEL-2): 80.5 µM (inactive) | GI50 (SK-MEL-5): > 100 µM (inactive) | GI50 (SK-OV-3): > 100 µM (inactive) | GI50 (SN12C): > 100 µM (inactive) | GI50 (SNB-19): > 100 µM (inactive) | GI50 (SNB-75): > 100 µM (inactive) | GI50 (SR): > 100 µM (inactive) | GI50 (SW-620): > 100 µM (inactive) | GI50 (T47D): 31.8 µM (inactive) | GI50 (TK-10): > 100 µM (inactive) | GI50 (U-251): > 100 µM (inactive) | GI50 (UACC-257): > 100 µM (inactive) | GI50 (UACC-62): 36.5 µM (inactive) | GI50 (UO-31): > 100 µM (inactive)
